Reference: US11234977B2, “Fused tricyclic pyrazolo-dihydropyrazinyl-pyridone compounds as antivirals” (priority 2017, dated 2022)

Each molecule was assayed on HBsAg secretion, HepG2-Clone42 cells (Tet-inducible HBV-expressing cell line, HBV ayw strain) (assay: HBsAg assay (HBsAg ELISA of secreted HBV sAg in HepG2-Clone42 cells)). Conditions: Hepatitis B virus, read-out: HBsAg EC50.
Type: cell-based
Method: HepG2-Clone42, a Tet-inducible HBV-expressing cell line with a stably integrated 1.3mer copy of the HBV ayw strain, was generated based on the Tet-inducible HepAD38 cell line with slight modifications. Ladner S K, et al., Antimicrobial Agents and Chemotherapy. 41(8):1715-1720 (1997). HepG2-Clone42 cells were cultured in DMEM/F-12+ Glutamax™ (Life Technologies, Carlsbad, Calif., USA), supplemented with 10% fetal bovine serum (Life Technologies), G-418 (Corning, Manassas, Va., USA) at a final concentration of 0.5 mg/mL, and 5 μg/mL Doxycycline (Sigma, St. Louis, Mo., USA) and maintained in 5% CO2 at 37° C.
HepG2-Clone42 cells were seeded into black clear-bottom 96-well plates at a concentration of 6.0×10^4 cells/well. 24 hours post-seeding, the cells were treated with 200 μl/well of media containing five-fold serial dilutions of compounds in DMSO. DMSO alone was used as the no drug control. The final DMSO concentration in all wells was 0.5%.
The HBsAg ELISA kit (Alpha Diagnostic International, San Antonio, Tex., USE, Catalog #4110) was used to determine the level (semi-quantitative) of secreted HBV sAg. The HBSAg ELISA assay was performed following the manufacturer's protocol as described.
Step 1. Pipet 100 μL each of compound or DMSO treated samples into HBsAg ELISA plates. Seal plates and incubate at room temp for 60 minutes.
Step 2. Aspirate samples and wash three times with Wash Buffer. Dispense 100 μL of antibody-HRP conjugate to each well. Incubate at room temp for 30 minutes.
Step 3. Aspirate samples and wash three times with Wash Buffer. Add 100 μL of TMB Substrate to all wells and incubate 15 minutes at room temp.
Step 4. Dispense 100 μL of Stop Solution to each well. Measure absorbance of ELISA plate at 450 nm.
Dose-response curves were generated and the EC50 value was defined as the compound concentration at which HBsAg secretion was reduced 50% compared to the DMSO control.
EC50 values were determined as follows:
Determine the percent of HBsAg secretion inhibition. Calculate the percent inhibition on of HBsAg secretion inhibition using the following equation: (XC-MB)/(MDMB) • where XC is the absorbance signal from compound-treated well; MB is average absorbance signal (background signal) for column 12 (no cells+HBsAg ELISA sample buffer) and MD is average absorbance signal from DMSO-treated wells. Then calculate EC50 values by non-linear regression using a four parameter curve logistic equation. The curve fit model employed is XLFit Dose Response One Site Model 204: y=(A+((B−A)/(1+(10^((C−x)*D))))) where A is the minimum y value, B is the maximum y value, C is the log EC50 value, and D is the slope factor. +++means<1 nm; ++means≥1 nm and ≤10 nm and +means>10 nm.

Compared with `COCCCOc1cc2n(n1)C[C@@H](C(C)(C)C)n1cc(C(=O)O)c(=O)cc1-2` [Compound 1.2, (R)-6-(tert-butyl)-2-(3-methoxypropoxy)-10-oxo-6,10-dihydro-5H-pyrazolo[1,5-a]pyrido[2,1-c]pyrazine-9-carboxylic acid], `COCCCOc1nn2c(c1Br)-c1cc(=O)c(C(=O)O)cn1[C@H](C(C)(C)C)C2` [Compound 1.3, (R)-1-bromo-6-(tert-butyl)-2-(3-methoxypropoxy)-10-oxo-6,10-dihydro-5H-pyrazolo[1,5-a]pyrido[2,1-c]pyrazine-9-carboxylic acid] is lower in EC50: greater than 10 nM for the first, 1 to 10 nM for the second.

Going from `CC(C)c1cc2n(n1)CC(C(C)(C)C)n1cc(C(=O)O)c(=O)cc1-2` (centres unmarked) [Compound 2.1, 6-(tert-butyl)-2-isopropyl-10-oxo-6,10-dihydro-5H-pyrazolo[1,5-a]pyrido[2,1-c]pyrazine-9-carboxylic acid] to `COCCCOc1nn2c(c1Cl)-c1cc(=O)c(C(=O)O)cn1[C@H](C(C)(C)C)C2` [Compound 1.1, (R)-6-(tert-butyl)-1-chloro-2-(3-methoxypropoxy)-10-oxo-6,10-dihydro-5H-pyrazolo[1,5-a]pyrido[2,1-c]pyrazine-9-carboxylic acid], the EC50 falls from greater than 10 nM to less than 1 nM.

First: COc1ccccc1-c1nn2c(c1Cl)-c1cc(=O)c(C(=O)O)cn1[C@H](C(C)(C)C)C2 [Compound 3.2, (R)-6-(tert-butyl)-1-chloro-2-(2-methoxyphenyl)-10-oxo-5,6-dihydro-10H-pyrazolo[1,5-a]pyrido[2,1-c]pyrazine-9-carboxylic acid]
Second: CC(C)(C)[C@@H]1Cn2nc(-c3ccccc3)c(Cl)c2-c2cc(=O)c(C(=O)O)cn21 [Compound 3.1, (R)-6-(tert-butyl)-1-chloro-10-oxo-2-phenyl-5,6-dihydro-10H-pyrazolo[1,5-a]pyrido[2,1-c]pyrazine-9-carboxylic acid]
The EC50 of the first is higher: greater than 10 nM for the first, less than 1 nM for the second.

`CC(C)[C@@H]1Cn2nc(-c3ccccc3)c(Cl)c2-c2cc(=O)c(C(=O)O)cn21` [Compound 3.4, (R)-1-chloro-6-isopropyl-10-oxo-2-phenyl-6,10-dihydro-5H-pyrazolo[1,5-a]pyrido[2,1-c]pyrazine-9-carboxylic acid] and `CC(C)[C@@H]1Cn2nc(-c3ccccc3)cc2-c2cc(=O)c(C(=O)O)cn21` [Compound 3.3, (R)-6-isopropyl-10-oxo-2-phenyl-5,6-dihydro-10H-pyrazolo[1,5-a]pyrido[2,1-c]pyrazine-9-carboxylic acid] cannot be ordered by EC50: greater than 10 nM for the first, greater than 10 nM for the second.
